US20260130901A1, “CGRP RECEPTOR ANTAGONIST FOR THE TREATMENT OF MIGRAINE” (ALLERGAN PHARMACEUTICALS INTERNATIONAL LIMITED, priority 2022, published 2026)

Tested on: participants with migraine (qualifying prodrome events)
Assay: Phase 3 crossover study: absence of prodrome symptoms over time
Assay type: in vivo, human
Conditions: 100 mg in prodrome; for Absence of sensitivity to sound, Odds ratio vs. placebo / Absence of sensitivity to sound, Responder (%) / Absence of dizziness, Nonresponder (%) / Absence of dizziness, Odds ratio vs. placebo / Absence of dizziness, Responder (%) / Absence of fatigue, Nonresponder (%) / Absence of fatigue, Odds ratio vs. placebo / Absence of fatigue, Responder (%) / Absence of neck pain, Nonresponder (%) / Absence of neck pain, Odds ratio vs. placebo / Absence of neck pain, Responder (%) / Absence of sensitivity to light, Nonresponder (%) / Absence of sensitivity to light, Odds ratio vs. placebo / Absence of sensitivity to light, Responder (%) / Absence of sensitivity to sound, Nonresponder (%): participants with symptom at predose
Description: A phase 3, multicenter, randomized, double-blind, placebo-controlled, crossover study was carried out to evaluate the efficacy, safety, and tolerability of oral ubrogepant in the acute treatment of migraine when administered during the prodrome. The study evaluated whether treatment during the initial phase of a migraine attack (i.e., the prodrome or premonitory phase) prior to the onset of headache, can attenuate the severity of the headache phase and reduce disability.
Eligible participants were randomized (1:1) to treatment sequences A or B in this crossover study. Participants randomized to Treatment Sequence A received placebo to treat their first qualifying prodrome event and ubrogepant 100 mg to treat their second qualifying prodrome event. For those randomized to Treatment Sequence B, they received the reverse: ubrogepant 100 mg to treat their first qualifying prodrome event and placebo to treat their second qualifying prodrome event.
N1 is the number of participants with the prodrome symptom at predose. N2 is the number of participants with non-missing prodrome symptom intensity assessment by timepoint after dose. The proportion of events with absence of sensitivity to light after ubrogepant 100 mg was numerically greater than after placebo, starting at 2 hours post-dose and extending through 48 hours (nominal P≤0.0109 for hours 2-8).
N1 is the number of participants with the prodrome symptom at predose. N2 is the number of participants with non-missing prodrome symptom intensity assessment by timepoint after dose. The difference in response rates was nominally significant for the ubrogepant 100 mg dose group compared with placebo as early as 3 hours post-dose administered during the prodrome.
N1 is the number of participants with the prodrome symptom at predose. N2 is the number of participants with non-missing prodrome symptom intensity assessment by timepoint after dose.

C[C@@H]1[C@H](c2ccccc2)C[C@H](NC(=O)c2cnc3c(c2)C[C@@]2(C3)C(=O)Nc3ncccc32)C(=O)N1CC(F)(F)F [Ubrogepant, (3′S)—N-((3S,5S,6R)-6-methyl-2-oxo-5-phenyl-1-(2,2,2-trifluoroethyl)piperidin-3-yl)-2′-oxo-1′,2′,5,7-tetrahydrospiro[cyclopenta[b]pyridine-6,3′-pyrrolo[2,3-b]pyridine]-3-carboxamide]
Absence of sensitivity to sound, Odds ratio vs. placebo (4 Hours post dose): 1.97 | Absence of sensitivity to sound, Responder (%) (4 Hours post dose): (50.7) % | Absence of dizziness, Nonresponder (%) (6 Hours post dose): (37.8) % | Absence of dizziness, Odds ratio vs. placebo (6 Hours post dose): 1.45 | Absence of dizziness, Responder (%) (6 Hours post dose): (62.2) % | Absence of fatigue, Nonresponder (%) (6 Hours post dose): (56.3) % | Absence of fatigue, Odds ratio vs. placebo (6 Hours post dose): 1.46 | Absence of fatigue, Responder (%) (6 Hours post dose): (43.7) % | Absence of neck pain, Nonresponder (%) (6 Hours post dose): (52.0) % | Absence of neck pain, Odds ratio vs. placebo (6 Hours post dose): 1.68 | Absence of neck pain, Responder (%) (6 Hours post dose): (48.0) % | Absence of sensitivity to light, Nonresponder (%) (6 Hours post dose): (42.1) % | Absence of sensitivity to light, Odds ratio vs. placebo (6 Hours post dose): 1.75 | Absence of sensitivity to light, Responder (%) (6 Hours post dose): (57.9) % | Absence of sensitivity to sound, Nonresponder (%) (6 Hours post dose): (43.3) % | Absence of sensitivity to sound, Odds ratio vs. placebo (6 Hours post dose): 1.44 | Absence of sensitivity to sound, Responder (%) (6 Hours post dose): (56.7) % | Absence of dizziness, Nonresponder (%) (8 Hours post dose): (27.9) % | Absence of dizziness, Odds ratio vs. placebo (8 Hours post dose): 1.33 | Absence of dizziness, Responder (%) (8 Hours post dose): (72.1) % | Absence of fatigue, Nonresponder (%) (8 Hours post dose): (46.1) % | Absence of fatigue, Odds ratio vs. placebo (8 Hours post dose): 1.87 | Absence of fatigue, Responder (%) (8 Hours post dose): (53.9) % | Absence of neck pain, Nonresponder (%) (8 Hours post dose): (49.7) % | Absence of neck pain, Odds ratio vs. placebo (8 Hours post dose): 1.40 | Absence of neck pain, Responder (%) (8 Hours post dose): (50.3) % | Absence of sensitivity to light, Nonresponder (%) (8 Hours post dose): (28.9) % | Absence of sensitivity to light, Odds ratio vs. placebo (8 Hours post dose): 2.40 | Absence of sensitivity to light, Responder (%) (8 Hours post dose): (71.1) % | Absence of sensitivity to sound, Nonresponder (%) (8 Hours post dose): (33.8) % | Absence of sensitivity to sound, Odds ratio vs. placebo (8 Hours post dose): 1.75 | Absence of sensitivity to sound, Responder (%) (8 Hours post dose): (66.2) % | Absence of dizziness, Nonresponder (%) (24 Hours post dose): (11.5) % | Absence of dizziness, Odds ratio vs. placebo (24 Hours post dose): 1.82 | Absence of dizziness, Responder (%) (24 Hours post dose): (88.5) % | Absence of fatigue, Nonresponder (%) (24 Hours post dose): (31.4) % | Absence of fatigue, Odds ratio vs. placebo (24 Hours post dose): 1.19 | Absence of fatigue, Responder (%) (24 Hours post dose): (68.6) % | Absence of neck pain, Nonresponder (%) (24 Hours post dose): (28.6) % | Absence of neck pain, Odds ratio vs. placebo (24 Hours post dose): 1.42 | Absence of neck pain, Responder (%) (24 Hours post dose): (71.4) % | Absence of sensitivity to light, Nonresponder (%) (24 Hours post dose): (18.1) % | Absence of sensitivity to light, Odds ratio vs. placebo (24 Hours post dose): 1.37 | Absence of sensitivity to light, Responder (%) (24 Hours post dose): (81.9) % | Absence of sensitivity to sound, Nonresponder (%) (24 Hours post dose): (16.9) % | Absence of sensitivity to sound, Odds ratio vs. placebo (24 Hours post dose): 1.38 | Absence of sensitivity to sound, Responder (%) (24 Hours post dose): (83.1) % | Absence of dizziness, Nonresponder (%) (48 Hours post dose): (10.5) % | Absence of dizziness, Odds ratio vs. placebo (48 Hours post dose): 1.66 | Absence of dizziness, Responder (%) (48 Hours post dose): (89.5) % | Absence of fatigue, Nonresponder (%) (48 Hours post dose): (22.9) % | Absence of fatigue, Odds ratio vs. placebo (48 Hours post dose): 1.22 | Absence of fatigue, Responder (%) (48 Hours post dose): (77.1) % | Absence of neck pain, Nonresponder (%) (48 Hours post dose): (22.2) % | Absence of neck pain, Odds ratio vs. placebo (48 Hours post dose): 1.01 | Absence of neck pain, Responder (%) (48 Hours post dose): (77.8) % | Absence of sensitivity to light, Nonresponder (%) (48 Hours post dose): (11.8) % | Absence of sensitivity to light, Odds ratio vs. placebo (48 Hours post dose): 1.52 | Absence of sensitivity to light, Responder (%) (48 Hours post dose): (88.2) % | Absence of sensitivity to sound, Nonresponder (%) (48 Hours post dose): (11.7) % | Absence of sensitivity to sound, Odds ratio vs. placebo (48 Hours post dose): 0.93 | Absence of sensitivity to sound, Responder (%) (48 Hours post dose): (88.3) % | Effect on the most commonly reported prodrome symptoms compared with placebo (mITT): ameliorated the most commonly reported prodrome symptoms | Earliest time at which difference in response rates vs placebo was nominally significant, absence of fatigue (post-dose): 3 h | Earliest time at which difference in response rates vs placebo was nominally significant, absence of neck pain (post-dose): 3 h
